In the NIST ThermoML archive (doi:10.1021/je060271a):
± gives the expanded uncertainty stated by the source.

Settings: 303.15 K, Liquid, Vibrating tube method

Measured: mass density

CCCCC(=O)OCC(COC(=O)CCCC)(COC(=O)CCCC)COC(=O)CCCC [pentaerythritol tetrapentanoate]
1019.5 ± 1.2 kg/m3: 13660 kPa | 13693 kPa
1016.3 ± 1.2 kg/m3: 8323.8 kPa | 8392.8 kPa | 8457.1 kPa | 8528 kPa | 8666.8 kPa
1014.7 ± 1.2 kg/m3: 5862.5 kPa | 5891.4 kPa | 5985.3 kPa | 6015.3 kPa | 6082.1 kPa
1016.7 ± 1.2 kg/m3: 8979.8 kPa | 9100.5 kPa | 9128.4 kPa | 9281.8 kPa | 9311.6 kPa
1018.5 ± 1.2 kg/m3: 11884 kPa | 11988 kPa | 12014 kPa | 12044 kPa | 12069 kPa | 12095 kPa | 12120 kPa | 12205 kPa | 12254 kPa
1017 ± 1.2 kg/m3: 9469.3 kPa | 9495.9 kPa | 9552.9 kPa | 9608.9 kPa | 9634.2 kPa | 9666.8 kPa | 9688 kPa
1015.2 ± 1.2 kg/m3: 6648.1 kPa | 6714 kPa | 6774.5 kPa | 6842.3 kPa | 6975.7 kPa
1019.2 ± 1.2 kg/m3: 13075 kPa | 13102 kPa | 13169 kPa | 13227 kPa | 13295 kPa | 13324 kPa
1017.1 ± 1.2 kg/m3: 9719.7 kPa | 9746.4 kPa | 9831.9 kPa | 9858.9 kPa | 9892.2 kPa | 10382 kPa
1015.6 ± 1.2 kg/m3: 7266.1 kPa | 7361.8 kPa | 7392.7 kPa | 7425.7 kPa | 7529.6 kPa | 7659.1 kPa
1014.3 ± 1.2 kg/m3: 5167.4 kPa | 5182.6 kPa | 5182.9 kPa | 5185.5 kPa | 5199.6 kPa | 5209.2 kPa | 5364.2 kPa | 5417.9 kPa
1014.2 ± 1.2 kg/m3: 4980.3 kPa | 5025.3 kPa | 5153.9 kPa | 5159.6 kPa | 5160.1 kPa | 5161.3 kPa | 5164.9 kPa | 5169.1 kPa | 5170.1 kPa | 5178.6 kPa | 5179.3 kPa | 5180.5 kPa | 5181.4 kPa | 5181.7 kPa | 5183.8 kPa | 5184.3 kPa | 5184.7 kPa | 5185.4 kPa | 5217.7 kPa | 5223.9 kPa | 5239.9 kPa | 5289.9 kPa
1019 ± 1.2 kg/m3: 12798 kPa | 12856 kPa | 12946 kPa | 13009 kPa
1018.3 ± 1.2 kg/m3: 11586 kPa | 11658 kPa | 11688 kPa | 11785 kPa | 11809 kPa
1014.6 ± 1.2 kg/m3: 5684.4 kPa | 5774.2 kPa | 5801.5 kPa | 5829.1 kPa | 5955.2 kPa
1016 ± 1.2 kg/m3: 7911.6 kPa | 7947.1 kPa | 7990.4 kPa
1017.3 ± 1.2 kg/m3: 9980.5 kPa | 10009 kPa | 10046 kPa | 10069 kPa | 10195 kPa
1016.8 ± 1.2 kg/m3: 9191.7 kPa | 9218.7 kPa | 9247.2 kPa | 9342 kPa | 9407.8 kPa | 9438.5 kPa
1014.1 ± 1.2 kg/m3: 5000.8 kPa | 5046.6 kPa | 5067.7 kPa | 5090.5 kPa | 5111.3 kPa | 5136.1 kPa | 5173.9 kPa | 5189.7 kPa | 5340.7 kPa
1018.6 ± 1.2 kg/m3: 11938 kPa | 12148 kPa | 12173 kPa | 12312 kPa | 12338 kPa
1015.3 ± 1.2 kg/m3: 6743.7 kPa | 6811.1 kPa | 6873.4 kPa | 6911.1 kPa | 7008.7 kPa | 7048.1 kPa
1015.4 ± 1.2 kg/m3: 6943.4 kPa | 7119.9 kPa | 7154.6 kPa | 7190.2 kPa
1014.9 ± 1.2 kg/m3: 6213.5 kPa | 6279.6 kPa | 6319.4 kPa | 6388.4 kPa | 6466 kPa
1016.4 ± 1.2 kg/m3: 8489 kPa | 8560.4 kPa | 8633.4 kPa | 8707.5 kPa | 8742.2 kPa | 8854.8 kPa
1014 ± 1.2 kg/m3: 4917.5 kPa | 4937.6 kPa | 4960.8 kPa
1015 ± 1.2 kg/m3: 6353.6 kPa | 6430.4 kPa | 6496.2 kPa
1016.9 ± 1.2 kg/m3: 9371.6 kPa | 9521 kPa | 9584.8 kPa
1018.9 ± 1.2 kg/m3: 12740 kPa | 12766 kPa | 12826 kPa
1019.4 ± 1.2 kg/m3: 13489 kPa | 13520 kPa | 13558 kPa | 13590 kPa | 13622 kPa
1018.1 ± 1.2 kg/m3: 11191 kPa | 11255 kPa | 11349 kPa | 11372 kPa | 11398 kPa | 11491 kPa | 11513 kPa
1018.8 ± 1.2 kg/m3: 12391 kPa | 12508 kPa | 12536 kPa | 12562 kPa | 12596 kPa | 12621 kPa | 12649 kPa | 12682 kPa | 12710 kPa
1017.9 ± 1.2 kg/m3: 10883 kPa | 10928 kPa | 10947 kPa | 10992 kPa | 11033 kPa | 11058 kPa | 11078 kPa | 11147 kPa | 11168 kPa | 11213 kPa | 11234 kPa
1014.8 ± 1.2 kg/m3: 5920.4 kPa | 6045.8 kPa | 6112.3 kPa | 6149.7 kPa | 6181.5 kPa | 6246.6 kPa
1017.8 ± 1.2 kg/m3: 10840 kPa | 10863 kPa | 10904 kPa | 10968 kPa | 11013 kPa
1015.9 ± 1.2 kg/m3: 7626.1 kPa | 7732.6 kPa | 7800.6 kPa | 7876.5 kPa | 8026.7 kPa
1018.7 ± 1.2 kg/m3: 12229 kPa | 12285 kPa | 12366 kPa | 12423 kPa | 12449 kPa | 12476 kPa
1016.5 ± 1.2 kg/m3: 8593.7 kPa | 8890.8 kPa | 8920.7 kPa | 9013.1 kPa
1018.4 ± 1.2 kg/m3: 11758 kPa | 11838 kPa | 11862 kPa | 11909 kPa | 11963 kPa
1015.5 ± 1.2 kg/m3: 7083.3 kPa | 7232.8 kPa | 7296.5 kPa | 7326.2 kPa
1014.4 ± 1.2 kg/m3: 5266.9 kPa | 5312.7 kPa | 5388.3 kPa | 5443 kPa | 5468.4 kPa | 5493.1 kPa | 5548.5 kPa | 5573.5 kPa | 5631 kPa | 5747 kPa
1018.2 ± 1.2 kg/m3: 11328 kPa | 11420 kPa | 11469 kPa | 11541 kPa | 11564 kPa | 11612 kPa | 11635 kPa | 11710 kPa | 11734 kPa
1016.2 ± 1.2 kg/m3: 8184.2 kPa | 8222.5 kPa | 8262.2 kPa | 8293.2 kPa | 8354.7 kPa
1018 ± 1.2 kg/m3: 11101 kPa | 11121 kPa | 11281 kPa | 11302 kPa | 11443 kPa
1017.6 ± 1.2 kg/m3: 10448 kPa | 10480 kPa | 10583 kPa | 10800 kPa
1015.1 ± 1.2 kg/m3: 6524.4 kPa | 6558.6 kPa | 6587.6 kPa | 6617.8 kPa | 6678.6 kPa
1017.5 ± 1.2 kg/m3: 10225 kPa | 10319 kPa | 10417 kPa | 10550 kPa | 10658 kPa
1016.6 ± 1.2 kg/m3: 8776.3 kPa | 8818.4 kPa | 8952.9 kPa | 9039.8 kPa | 9066.8 kPa | 9157.4 kPa
1014.5 ± 1.2 kg/m3: 5518.4 kPa | 5599.8 kPa | 5657.1 kPa | 5712.8 kPa
1019.6 ± 1.2 kg/m3: 13725 kPa
1015.7 ± 1.2 kg/m3: 7461.8 kPa | 7491.3 kPa | 7561.2 kPa | 7835 kPa
1019.1 ± 1.2 kg/m3: 12889 kPa | 12918 kPa | 12980 kPa | 13044 kPa | 13132 kPa | 13197 kPa | 13258 kPa
1017.4 ± 1.2 kg/m3: 10099 kPa | 10254 kPa | 10289 kPa | 10351 kPa
1016.1 ± 1.2 kg/m3: 8062.9 kPa | 8107.6 kPa | 8145.4 kPa | 8424.5 kPa
1017.7 ± 1.2 kg/m3: 10517 kPa | 10624 kPa | 10690 kPa | 10713 kPa | 10757 kPa | 10821 kPa
1017.2 ± 1.2 kg/m3: 9779.5 kPa | 9805.7 kPa | 9921.6 kPa | 9948 kPa | 10134 kPa | 10161 kPa
1015.8 ± 1.2 kg/m3: 7593.6 kPa | 7692.2 kPa | 7766.1 kPa
1019.3 ± 1.2 kg/m3: 13359 kPa | 13390 kPa | 13421 kPa | 13458 kPa
